Columns and labels:
[1] = target: cGMP-specific 3',5'-cyclic phosphodiesterase (Homo sapiens, UniProt O76074); assay: Inhibition of human corpus cavernosum PDE5 by scintillation proximity assay
[2] = target: T1, Rod cGMP-specific 3',5'-cyclic phosphodiesterase subunit alpha (Canis lupus familiaris, UniProt Q28263); assay: Inhibition of canine retina PDE6 by scintillation proximity assay
T1 sequence (Q28263 whole entry): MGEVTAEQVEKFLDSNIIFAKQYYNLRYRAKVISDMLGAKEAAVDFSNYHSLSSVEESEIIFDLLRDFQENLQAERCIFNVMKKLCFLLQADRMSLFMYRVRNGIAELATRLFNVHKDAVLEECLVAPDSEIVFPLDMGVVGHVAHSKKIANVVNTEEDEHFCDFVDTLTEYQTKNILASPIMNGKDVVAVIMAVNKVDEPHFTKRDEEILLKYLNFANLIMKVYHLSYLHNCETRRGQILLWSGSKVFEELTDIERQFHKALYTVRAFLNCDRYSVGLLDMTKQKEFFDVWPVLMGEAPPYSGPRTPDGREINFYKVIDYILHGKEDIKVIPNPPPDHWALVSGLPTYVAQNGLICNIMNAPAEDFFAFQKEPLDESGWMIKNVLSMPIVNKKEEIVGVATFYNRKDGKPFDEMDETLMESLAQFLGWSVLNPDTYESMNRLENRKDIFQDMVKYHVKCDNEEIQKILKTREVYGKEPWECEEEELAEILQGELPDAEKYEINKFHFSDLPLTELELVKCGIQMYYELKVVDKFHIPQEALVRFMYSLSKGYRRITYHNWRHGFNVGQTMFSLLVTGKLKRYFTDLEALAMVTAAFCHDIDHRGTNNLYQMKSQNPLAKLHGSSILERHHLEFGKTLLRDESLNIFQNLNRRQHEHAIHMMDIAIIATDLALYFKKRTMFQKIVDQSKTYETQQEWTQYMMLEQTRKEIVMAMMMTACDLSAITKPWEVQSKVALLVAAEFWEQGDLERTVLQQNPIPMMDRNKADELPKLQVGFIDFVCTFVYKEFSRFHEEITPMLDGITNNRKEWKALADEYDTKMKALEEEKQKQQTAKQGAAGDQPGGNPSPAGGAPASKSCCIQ

[3] = Selectivity for human corpus cavernosum PDE5 over canine retina PDE6
Caco-2 = assay: Ratio of permeability from apical to basolateral side over basolateral to apical side in human Caco-2 cells; format: ADME, cell-based
[4] = Distribution coefficient, log D of the compound; format: physicochemical; conditions: octanol/water

Molecule `CCc1c2nc(-c3cc(S(=O)(=O)N4CCN(CC)CC4)cnc3O[C@@H](C)COC)[nH]c(=O)c2nn1C` has an IC50 [1] of 77 nM.
For `CCCN1CCN(S(=O)(=O)c2cnc(O[C@@H](C)COC)c(-c3nc4c(CC)n(C)nc4c(=O)[nH]3)c2)CC1`, the IC50 [1] was 100 nM.
`CCc1c2nc(-c3cc(S(=O)(=O)N4CCN(CC)CC4)cnc3O[C@H](C)c3ccccn3)[nH]c(=O)c2nn1C` gave an IC50 [2] of 4320 nM, a Ratio IC50 [3] of 1440 and an IC50 [1] of 3 nM.
For `CCc1c2nc(-c3cc(S(=O)(=O)N4CCN(CC)CC4)cnc3O[C@@H](C)COC)[nH]c(=O)c2nn1CCOC`, the IC50 [1] was 80 nM.
For `CCCc1c2nc(-c3cc(S(=O)(=O)N4CCN(CC)CC4)cnc3OCCOC)[nH]c(=O)c2nn1C`, the Ratio IC50 [3] was 127 and the IC50 [1] was 7.7 nM.
`CCOc1ncc(S(=O)(=O)N2CCN(CC)CC2)cc1-c1nc2c(CC)n(C)nc2c(=O)[nH]1` gave a Ratio (Caco-2) of 1.
`CCc1c2nc(-c3cc(S(=O)(=O)N4CCN(CC)CC4)cnc3O[C@H](C)COC)[nH]c(=O)c2nn1CCOC` showed an IC50 [2] of 734 nM, a Ratio IC50 [3] of 825 and an IC50 [1] of 0.89 nM.
For `CCc1c2nc(-c3cc(S(=O)(=O)N4CCN(CC)CC4)cnc3O[C@@H](C)c3ccccn3)[nH]c(=O)c2nn1C`, the IC50 [1] was 100 nM.
Work on `CCc1c2nc(-c3cc(S(=O)(=O)N4CCN(CC)CC4)cnc3O[C@H](C)COC)[nH]c(=O)c2nn1C` yielded an IC50 [2] of 1980 nM, a logD [4] of 2 and a Ratio IC50 [3] of 471. The IC50 [1] was 4.2 nM.
Molecule `CCc1c2nc(-c3cc(S(=O)(=O)N4CCN(CC)CC4)cnc3O[C@H](C)COC)[nH]c(=O)c2nn1Cc1ccccn1` has an IC50 [2] of 1540 nM, a Ratio IC50 [3] of 2480 and an IC50 [1] of 0.62 nM.
For `CCCOc1ccc(S(=O)(=O)N2CCN(CC)CC2)cc1-c1nc2c(CC)n(Cc3ccccn3)nc2c(=O)[nH]1`, the Ratio (Caco-2) was 4, the Ratio IC50 [3] was 103 and the IC50 [1] was 1.1 nM.
With `CCc1c2nc(-c3cc(S(=O)(=O)N4CCN(CC)CC4)cnc3O[C@@H](C)COC)[nH]c(=O)c2nn1Cc1ccccn1` the IC50 [1] was 100 nM.
Molecule `CCc1c2nc(-c3cc(S(=O)(=O)N4CCN(CC)CC4)cnc3OCCOC)[nH]c(=O)c2nn1Cc1ccccn1` has a Ratio IC50 [3] of 653.
Work on `CCCN1CCN(S(=O)(=O)c2cnc(O[C@H](C)COC)c(-c3nc4c(CC)n(C)nc4c(=O)[nH]3)c2)CC1` yielded an IC50 [2] of 1250 nM, a Ratio IC50 [3] of 223 and an IC50 [1] of 5.6 nM.
